Publication PMC10419416, “Fighting Pseudomonas aeruginosa Infections: Antibacterial and Antibiofilm Activity of D-Q53 CecB, a Synthetic Analog of a Silkworm Natural Cecropin B Variant” (International Journal of Molecular Sciences, 2023)
In brackets after ≈: the same amount, converted by molar mass. Read-outs that look alike come from different tables or passages of the source.

Tests used:
[1] = system: T1, human neutrophil elastase; assay: Enzymatic digestion with human neutrophil elastase, RP-HPLC; assay type: in vitro ADME; conditions: isolated enzyme elastase; peptide 1 mg/mL in 10 mM Tris-HCl pH 7.5, 20 U human leukocyte elastase, 37 °C, 5 h (300 min), RP-HPLC C18 peak integration; read-out: % of intact peptide
T1 construct: purchased Merck
Experimental: (§1) L- and D-Q53 CecB peptides, as well as the human LL-37 peptide (Merck, Burlington, MA, USA), were dissolved in 10 mM Tris-HCl, pH 7.5, at a final concentration of 1 mg/mL. Subsequently, 120 μL of each peptide solution were incubated at 37 °C with 20 U of human leukocyte elastase (Merck) or P. aeruginosa elastase (Elastin Products Company, Owensville, MO, USA) and 5 μL of 10 mM Tris-HCl, pH 7.5. At given time intervals (30, 60, 120, and 300 min), a volume corresponding to 30 μg of each peptide was diluted in 70 μL of 1% trifluoroacetic acid (TFA) to stop the reaction. Peptide suspensions,v without any enzyme (undigested controls), were processed in parallel. Each solution was analyzed by RP-HPLC, using a Phenomenex LC C18 analytical column (300 Å, […], 250 × 4.6 mm; Phenomenex, Torrance, CA, USA) and a Widepore C18 security guard cartridge (4 × 3.0 mm; Phenomenex, Torrance, CA, USA), in a 30 min-linear Acetonitrile (ACN) gradient (from 0% to 40% for L- and D-Q53 CecB peptides; from 20% to 60% for LL-37). A Waters Alliance 2695 Separations Module connected to a 996 PDA (Waters, Milford, MA, USA) was employed for RP-HPLC.

P. aeruginosa elastase = system: T2, P. aeruginosa elastase; assay: Enzymatic digestion with P. aeruginosa elastase, RP-HPLC; assay type: in vitro ADME; conditions: isolated enzyme elastase; peptide 1 mg/mL in 10 mM Tris-HCl pH 7.5, 20 U P. aeruginosa elastase, 37 °C, 30 min, RP-HPLC C18 peak integration; read-out: % of full-length peptide
T2 construct: purchased Elastin Products Company
Experimental: as §1

[2] = system: P. aeruginosa ATCC 27853, non-mucoid strain; assay: Degradation of pre-formed 24 h old biofilm, crystal violet; assay type: cell-based, Pseudomonas aeruginosa; conditions: 1 h; L-Q53 CecB 1/2 to 8 MIC, tobramycin 1 to 8 MIC
Experimental: (§2) One hundred μL of bacteria (1 × 10^6 cells/mL), derived from a fresh ON culture, were seeded in a sterile non-treated polystyrene 96-well plate (Corning) and incubated for 24 h at 37 °C without agitation. […] Evaluation of biofilm biomass was performed using a crystal violet assay as described above (Section 4.8). Experiments were performed two-four times.

[3] = system: P. aeruginosa ATCC 25668, mucoid strain; assay: as above; assay type: cell-based, Pseudomonas aeruginosa; conditions: 1 h; L-Q53 CecB 1/2 to 8 MIC (except 4 MIC), tobramycin 1 to 8 MIC
Experimental: as §2

[4] = system: P. aeruginosa ATCC 27853, non-mucoid strain; assay type: cell-based, Pseudomonas aeruginosa; conditions: for biofilm biomass vs untreated controls (biofilm formation): 24 h
Experimental: (§3) An ON bacterial culture was diluted to 2 × 10^6 cells/mL in an LB medium. 50 µL/well were seeded in a sterile non-treated polystyrene 96-well plate (Corning) and added with 50 µL LB medium containing serial dilutions of each compound (final concentrations of L- and D-Q53 CecB peptides: from 0.034 to 17.6 µM; final concentrations of tobramycin: 0.27 and 0.53 μM, and from 2.14 to 17 μM). Each condition was tested in three-six replicates. Wells containing untreated bacteria (negative controls) or LB medium only (blank) were followed in parallel. Each plate was incubated for 24 h at 37 °C without agitation. After washing twice, samples were stained with a 0.1% crystal violet solution for 20 min, washed three times, and incubated in 30% acetic acid for 20 min, as in [74]. Plates were read at 595 nm using a microplate reader. For each sample, the biofilm biomass percentage was calculated relative to that of the untreated control showing the highest OD value, set equal to 100%. Each experiment was performed at least twice.

[5] = system: P. aeruginosa ATCC 25668, mucoid strain; assay type: cell-based, Pseudomonas aeruginosa; conditions: for biofilm biomass vs untreated controls (biofilm formation): 24 h
Experimental: as §3

[6] = system: P. aeruginosa ATCC 27853 and ATCC 25668 strains; assay: microbe, parasite or virus in culture; assay type: cell-based, Pseudomonas aeruginosa; conditions: Pseudomonas aeruginosa, 24 h
Experimental: (§4) The following strains were used: P. aeruginosa ATCC 27853, ATCC 25668, and PAO1-L (Lausanne subline). All strains were grown at 37 °C in Luria Bertani (LB) medium or in Luria Bertani Agar (LBA) plates.
(§5) The antibacterial activities of L- and D-Q53 CecB were evaluated by determining (i) the MIC and (ii) the MBC. Tobramycin (Merck) was used as an antibiotic control. (i) An overnight (ON) bacterial culture was diluted to 1 × 10^6 cells/mL in LB medium. 50 µL/well were seeded in sterile polypropylene 96-well plates (Corning, Corning, NY, USA) and added with 50 µL LB medium, containing serial dilutions of each compound (final concentrations of L- and D-Q53 CecB peptides from 1.1 to 35.2 µM; final concentrations of tobramycin from 0.26 to 17 μM; each condition in triplicate). Microbial suspensions in the growing medium (positive control) and wells with only the medium (negative controls) were processed in parallel. Plates were incubated 24 h at 37 °C with agitation (300 rpm), and the absorbance was measured at 600 nm in a microplate reader. The MIC was considered as the lowest concentration determining a delta optical density at 600 nm (ΔOD600) equal to 0 ± 0.05. The ΔOD600 was determined by subtracting the OD600 recorded at time 0 from that obtained after 24 h. Each experiment was performed at least three times. […] For each sample, 100 μL of 1:10, 1:100, and 1:1000 dilutions were plated on LBA plates, and colonies were counted after 24 h at 37 °C. […] Each experiment was performed at least twice.

[7] = system: P. aeruginosa PAO1-L strain; assay: microbe, parasite or virus in culture; assay type: cell-based, Pseudomonas aeruginosa; conditions: Pseudomonas aeruginosa, value between parentheses, 24 h, 37 °C, plating on LBA
Experimental: as §4, §5

[8] = system: P. aeruginosa ATCC 25668, ATCC 27853, and PAO1-L strains; assay: microbe, parasite or virus in culture; assay type: cell-based, Pseudomonas aeruginosa; conditions: Pseudomonas aeruginosa; LB medium, 24 h, 37 °C, OD600; same value for all three strains; triplicate, at least three experiments
Experimental: as §4, §5

[9] = concentrations from 8 to 1 MIC (1 MIC = 2.2 µM peptides, 2.14 µM tobramycin), 24 h static, 37 °C, stated for both strains

Row | SMILES | remaining at 5 h, 1 mg/mL [1] [%] | remaining at 0.5 h, 1 mg/mL (P. aeruginosa elastase) [%] | reduction of pre-formed biofilm biomass at all tested concentrations [2] | reduction of pre-formed biofilm biomass at all tested concentrations [3] | biofilm biomass vs untreated controls (biofilm formation) ([4]; 1/4 MIC) | biofilm biomass vs untreated controls (biofilm formation) ([4]; 1/8 MIC) | decrement in biofilm biomass vs untreated controls (inhibition of biofilm formation) [4, 9] | biofilm biomass vs untreated controls (biofilm formation) ([5]; 1/4 MIC) | biofilm biomass vs untreated controls (biofilm formation) ([5]; 1/8 MIC) | decrement in biofilm biomass vs untreated controls (inhibition of biofilm formation) [5, 9] | MBC [6] [µM] | MBC [7] [µM] | MIC [8] [µM]
1 | CC[C@H](C)[C@H](NC(=O)[C@H](CCCCN)NC(=O)[C@H](CCC(=O)O)NC(=O)[C@H](CCCCN)NC(=O)[C@H](CO)NC(=O)[C@H](CCCCN)NC(=O)[C@H](CCCNC(=N)N)NC(=O)[C@H](Cc1ccccc1)NC(=O)[C@H](Cc1ccccc1)NC(=O)[C@H](CC(=O)O)NC(=O)CNC(=O)[C@H](CC(C)C)NC(=O)[C@@H](N)CC(C)C)C(=O)NCC(=O)N[C@@H](CCCCN)C(=O)N[C@@H](CCC(=O)O)C(=O)N[C@@H](Cc1ccccc1)C(=O)N[C@@H](CCCCN)C(=O)N[C@@H](CCCNC(=N)N)C(=O)N[C@H](C(=O)N[C@H](C(=O)N[C@@H](CCC(N)=O)C(=O)N[C@@H](CCCNC(=N)N)C(=O)N[C@H](C(=O)N[C@@H](CCCCN)C(=O)N[C@@H](CC(=O)O)C(=O)N[C@@H](Cc1ccccc1)C(=O)N[C@@H](CC(C)C)C(=O)N[C@@H](CCCNC(=N)N)C(=O)N[C@@H](CC(N)=O)C(=O)N[C@@H](CC(C)C)C(=O)N[C@H](C(=O)N1CCC[C@H]1C(=O)N[C@@H](CCCNC(=N)N)C(=O)N[C@H](C(=O)N[C@@H](CCC(=O)O)C(=O)N[C@@H](CO)C(=O)O)[C@@H](C)O)C(C)C)[C@@H](C)CC)C(C)C)[C@@H](C)CC [LL-37, reference compound] | 8.7 | ~0.2 | – | – | – | – | – | – | – | – | – | – | –
2 | NC[C@H]1O[C@H](O[C@H]2[C@H](O)[C@@H](O[C@H]3O[C@H](CO)[C@@H](O)[C@H](N)[C@H]3O)[C@H](N)C[C@@H]2N)[C@H](N)C[C@@H]1O [Tobramycin, reference compound] | – | – | not efficient | not efficient | not affected | not significantly different | ~ 99.9% | significantly higher | not significantly different | ~ 99.9% | 4.29 (≈ 2.01 µg/mL) | 8.56 (≈ 4 µg/mL) | 2.14 (≈ 1 µg/mL)
